Experimental data taken from patent publication US20130315920A1, “Cross Protective Epitopes of Aspergillus Fumigatus and Candida Albicans” (Cell Medica Limited, priority 2010, published 2013).

Columns and labels:
[1] = tested on: T-cell lines of 7 donors with different MHC class II alleles; test: Epitope mapping of Crf1 peptides with IFN-γ ELISPOT; format: cell-based, human; conditions: 7 donors tested, peptide-pulsed autologous DC
Text: As the identification of potential protective fungal antigens is rather intricate due to the extensiveness of fungal genomes, we analyzed 6 different A. fumigatus recombinant proteins based on their previously reported immunogeneic reactivity in mice and humans^7,10. […] By contrast, GPI-anchored extracellular cell wall glucanase Crf1 and secreted protein peptidase induced high IFN-γ in 6 of 7 and 5 of 10 tested donors, respectively. The response was mediated by CD4^+ TH1 cells, as MHC class II blocking antibody nearly abrogated IFN-γ release (data not shown). Due to the broad response and the sequence similarity to the C. albicans orthologue Crh1, we focused in subsequent experiments on the protein Crf1. By epitope mapping of 7 healthy individuals with different MHC class II alleles, we identified 10 potential candidate epitopes (Table 1). Based on the results obtained by epitope mapping, the probability of antigen presentation by certain MHC class II alleles assessed by epitope prediction^11, previously reported immunogeneic reactivity^12 and sequence similarity to the C. albicans homologue Crh1, we then generated CD4^+ TH1 T-cell clones specific for the peptides p1, p22, p27, p41, p48, p59, p69 and p84 (FIG. 1a and Table 1).
A peptide library covering the complete Crf1 sequence consisting of 94 15-mer peptides overlapping by […] (aa) was divided into sub-pools of 10 peptides and 94 single peptides (p1-p94) (PANATecs). 3 11-mer peptides of p40/41 overlapping by 2aa ([…], […], HTYTIDWTKDA) were obtained from JPT Peptide Technologies.
For analysis of recombinant proteins and epitope mapping, T-cell lines were generated by incubation of 1×10^7 PBMC per well in 6-well cell culture plates with 5 μg/ml protein or peptide for 7d in the presence of 5 U/ml IL-2 (Proleukin, Chiron). Antigen specificity was analyzed by IFN-γ ELISA^42 after restimulation with autologous monocytes incubated overnight with 5 μg/ml protein in a responder to stimulator (R:S) ratio of 5:1. Epitope mapping was performed by IFN-γ ELISPOT^39 after stimulation with peptide-pulsed autologous DC at a R:S ratio of 10:1.

[2] = tested on: A. fumigatus cell extract; test: Peptide-specific T-cell clones stimulated with DC incubated with A. fumigatus cell extract (IFN-γ); format: cell-based, Aspergillus fumigatus; conditions: extract 20 μg/ml, DC incubated 24 h
Protocol: (§1) T-cell cloning was performed as described in below. T-cell clones were stimulated either with mature peptide-pulsed (2.5 μg/ml) or Crf1 mRNA-transfected DC, immature DC incubated for 24 h with A. fumigatus cell extract (20 μg/ml) in the presence of cytokine maturation cocktail or immature DC incubated for 24 h with inactivated A. fumigatus or C. albicans fungus (multiplicity of infection 3) in a R:S ratio of 5:1.
(§2) Fungal extracts were generated as described^48 and protein content was measured by Bradford protein assay (Perbio Science) according to the manufacturers' instructions. For inactivated fungus Aspergillus conidia were inoculated in growth medium^49 and cultured for 0, 4, 8 or 12 h. Candida species were cultured for 24 h. Fungi were inactivated with 70% ethanol. Ethanol-inactivated fungi and extracts were validated for sterility by subculturing on Sabouraud dextrose agar.

C. albicans = test: Peptide-specific T-cell clones stimulated with inactivated C. albicans yeast; format: cell-based, Candida albicans
Text: A. fumigatus Crf1 p41-specific T-cell clones are cross-reactive to C. albicans and can be activated by different clinical isolates of both fungi. (a) All A. fumigatus Crf1 p41-specific T-cell clones from different donors respond to stimulation with inactivated C. albicans yeast. IFN-γ values are given after subtraction of the negative control. Shown is 1 clone per antigen and donor (representative experiments, n≧3). (b) A. fumigatus Crf1 p41-specific T-cell clones respond to different inactivated clinical isolates of germinating A. fumigatus conidia and C. albicans yeast.
as §1, §2

[3] = tested on: A. flavus, A. nidulans, A. niger, A. terreus, C. glabrata and C. krusei; test: Cross-reactivity of T-cell clones to other Aspergillus and Candida species; format: cell-based; conditions: data not shown
Text: We then analyzed if our T-cell clones might cross-react to other clinically relevant Aspergillus and Candida species such as A. flavus, A. nidulans, A. niger, A. terreus, C. glabrata and C. krusei because they also express proteins with some sequence similarity to A. fumigatus Crf1. […] Thus, p41-specific TH1 cells represent a core repertoire in antifungal immune responses being reactive to A. fumigatus but also to C. albicans, the second most important pathogenic fungus in HSCT patients.
Fungal strains A. fumigatus D141, A. nidulans FGSCA4, C. albicans SC5314 and clinical isolates A. fumigatus, A. terreus, A. flavus, A. niger, C. albicans, C. glabrata and C. krusei were provided by Sven Krappmann, Joachim Morschhäuser and Reno Frei.

HLA-DRB1*03 = test: HLA restriction with peptide-pulsed partially matched LCL (IFN-γ ELISA); format: cell-based, human; conditions: 10^−3 to 1 ug/ml peptide
Protocol: (§3) To evaluate the utility of the Crf1 p41 epitope for potential clinical application, we defined the HLA restriction of Crf1 p41-specific CD4^+ T clones from different donors by stimulation with peptide-pulsed partially matched LCLs. […] As presentation of the Crf1 p41 peptide could also be mediated by other MHC class II alleles, we verified the HLA restriction by stimulation of PBMC from additional donors.
(§4) HLA restriction was analyzed with partially matched allogeneic EBV-lymphoblastoid cell lines (LCL) (provided by Patricia Comoli and Inge Jedema) pulsed with 10^−3 to 1 ug/ml peptide using IFN-γ ELISA.

HLA-DRB1*04 = test: as above; format: cell-based, human; conditions: 10^−3 to 1 ug/ml peptide
Protocol: as §3, §4

HLA-DRB1*13 = test: as above; format: cell-based, human; conditions: for Presentation / binding by HLA-DRB1*13: 10^−3 to 1 ug/ml peptide
Protocol: as §3, §4

HTYTIDWTKDAVTWS (Peptide found in the Crf1 protein of Aspergillus fumigatus) [p41, Crf1 aa 161-175]
No. of responders [1]: 5
Response of peptide-specific T-cell clones to A. fumigatus extract [2]: All Crf1 p41-specific T-cell clones of all 5 donors
Cross-reactivity with different clinical isolates of A. fumigatus and C. albicans (C. albicans; clinical isolates): could further confirm this cross-reactivity of the Crf1 p41 epitope
Cross-reactivity of peptide-specific T-cell clones to C. albicans (C. albicans; inactivated C. albicans yeast, established strain): All p41-specific T-cell clones of all donors recognized and responded to C. albicans
Cross-reactivity to other Aspergillus and Candida species [3]: none of the Crf1 p27-, p41- and p59-specific T-cell clones showed any cross-reactivity to these fungi
Presentation / binding by HLA-DRB1*03 (HLA-DRB1*03): presentation of the Crf1 p41 is mediated by HLA-DRB1*03, 04 and 13
Presentation / binding by HLA-DRB1*03 (HLA-DRB1*03; listed as HTYTIDWTKDAVTWS): has been shown to bind to HLA-DRB1*03, HLA-DRB1*13 and HLA-DRB1*04
Presentation / binding by HLA-DRB1*04 (HLA-DRB1*04): presentation of the Crf1 p41 is mediated by HLA-DRB1*03, 04 and 13
Presentation / binding by HLA-DRB1*04 (HLA-DRB1*04; listed as HTYTIDWTKDAVTWS): has been shown to bind to HLA-DRB1*03, HLA-DRB1*13 and HLA-DRB1*04
Cross-recognition between HLA-DRB1*03 and 13 (HLA-DRB1*13): in some instances DRB1*03-restricted TCRs might be able to recognize p41 peptide presented by DRB1*13 and vice versa
Presentation / binding by HLA-DRB1*13 (HLA-DRB1*13): presentation of the Crf1 p41 is mediated by HLA-DRB1*03, 04 and 13
Presentation / binding by HLA-DRB1*13 (HLA-DRB1*13; listed as HTYTIDWTKDAVTWS): has been shown to bind to HLA-DRB1*03, HLA-DRB1*13 and HLA-DRB1*04
